Assays:
[1] = biological target: S1P1 (membranes prepared from S1P1/CHO cells) (Homo sapiens (Human), UniProt P21453); test: Receptor [35S] GTPγS binding assay (S1P1 GTPγS); assay type: biochemical; conditions: phosphate examples; read-out: S1P1 GTPγS
Method: (§1) Receptor [^35S] GTPγS Binding Assays: (S1P1 GTPγS/S1P3 GTPγS)
Compounds were loaded in a 384 Falcon v-bottom plate (0.5 μl/well in a 11 point, 3-fold dilution). Membranes prepared from S1P1/CHO cells or EDG3-Gal5-bla HEK293T cells (EDG3 equivalent S1P3) were added to the compound plate (40 μl/well, final protein 3 μg/well) with MULTIDROP®. [^35S] GTP (1250 Ci/mmol, Perkin Elmer) was diluted in assay buffer: 20 mM HEPES, pH7.5, 10 mM MgCl2, 150 mM NaCl, 1 mM EGTA (ethylene glycol tetraacetic acid), 1 mM DTT (Dithiothreitol), 10 μM GDP, 0.1% fatty acid free BSA, and 10 μg/ml Saponin to 0.4 nM. 40 μl of the [^35S] GTP solution was added to the compound plate with a final concentration of 0.2 nM. The reaction was kept at room temperature for 45 min. At the end of incubation, all the mixtures in the compound plate were transferred to Millipore 384-well FB filter plates via the VELOCITY11® Vprep liquid handler. The filter plate was washed with water 4 times by using the manifold Embla plate washer and dried at 60° C. for 45 min. MicroScint 20 scintillation fluid (30 μl) was added to each well for counting on the Packard TOPCOUNT®. […]

[2] = biological target: human S1P1 (Homo sapiens (Human), UniProt P21453); test: S1P1 binding assay (33P-S1P radioligand competition, CHO cell membranes); conditions: phosphate examples; read-out: S1P1 Binding
Method: Membranes were prepared from CHO cells expressing human S1P1. Cells pellets (1×10^9 cells/pellet) were suspended in buffer containing 20 mM HEPES (4-(2-hydroxyethyl)-1-piperazineethanesulfonic acid), pH 7.5, 50 mM NaCl, 2 mM EDTA (Ethylenediaminetetraacetic acid) and Protease Inhibitor cocktail (Roche), and disrupted on ice using the Polytron homogenizer. The homogenate was centrifuged at 20,000 rpm (48,000 g) and the supernatant was discarded. The membrane pellets were resuspended in buffer containing 50 mM HEPES, pH 7.5, 100 mM NaCl, 1 mM MgCl2, 2 mM EDTA and stored in aliquots at −80° C. after protein concentration determination.

[3] = biological target: hS1P1/CHO cells (Homo sapiens (Human), UniProt P21453); test: hS1P1 ERK phosphorylation (S1P1 pERK); assay type: cell-based; conditions: phosphate examples
Method: hS1P1 ERK Phosphorylation (S1P1 pERK)
hS1P1/CHO cells were plated into BD Amine 384-well plates the day before the assay. On the day of the assay, growth medium was removed and replaced with serum-free medium (Ham's F-12 Invitrogen) and incubated for 2 hours. Test compounds pre-diluted in HBSS (Gibco)/20 mM HEPES (Gibco) were transferred to the cell plates and incubated for 7 minutes at 37° C. Cells were lysed in lysis buffer (Perkin Elmer) and phospho-ERK was measured using the SureFire pERK kit (Perkin Elmer) as described by the manufacturer. Data was plotted as percentage activation of the test compound relative to the efficacy of 10 μM S1P.

[4] = biological target: S1P3 (membranes prepared from EDG3-Gal5-bla HEK293T cells) (Homo sapiens (Human), UniProt Q99500); test: Receptor [35S] GTPγS binding assay (S1P3 GTPγS); assay type: biochemical; conditions: phosphate examples; read-out: S1P3 GTPγS
Method: as §1
Compounds were loaded in a 384 Falcon v-bottom plate (0.5 μl/well in a 11 point, 3-fold dilution). Membranes prepared from S1P1/CHO cells or EDG3-Gal5-bla HEK293T cells (EDG3 equivalent S1P3) were added to the compound plate (40 μl/well, final protein 3 μg/well) with MULTIDROP®. [^35S] GTP (1250 Ci/mmol, Perkin Elmer) was diluted in assay buffer: 20 mM HEPES, pH7.5, 10 mM MgCl2, 150 mM NaCl, 1 mM EGTA (ethylene glycol tetraacetic acid), 1 mM DTT (Dithiothreitol), 10 μM GDP, 0.1% fatty acid free BSA, and 10 μg/ml Saponin to 0.4 nM. 40 μl of the [^35S] GTP solution was added to the compound plate with a final concentration of 0.2 nM. The reaction was kept at room temperature for 45 min. At the end of incubation, all the mixtures in the compound plate were transferred to Millipore 384-well FB filter plates via the VELOCITY11® Vprep liquid handler. The filter plate was washed with water 4 times by using the manifold Embla plate washer and dried at 60° C. for 45 min. MicroScint 20 scintillation fluid (30 μl) was added to each well for counting on the Packard TOPCOUNT®.
A smaller value for GTPγS S1P1 EC50 value indicated greater activity for the compound in the GTPγS S1P1 binding assay. A larger value for the GTPγS S1P3 EC50 value indicated less activity in the GTPγS S1P3 binding assay. […] Thus the compounds of the present invention may be used in treating, preventing, or curing various S1P1 receptor-related conditions while reducing or minimizing the side effects due to S1P3 activity. The selectivity of the compounds of the present invention indicate their potential use in treating, preventing, or curing autoimmune and inflammatory diseases such as multiple sclerosis, rheumatoid arthritis, inflammatory bowel disease, lupus, psoriasis, or vascular diseases, while reducing or minimizing possible side effects due to S1P3 activity. Other potential uses of the compounds of the present invention include minimizing or reducing rejection of transplanted organs, while reducing or minimizing side effects due to S1P3 activity.

Sequence of human S1P1 (P21453 whole entry): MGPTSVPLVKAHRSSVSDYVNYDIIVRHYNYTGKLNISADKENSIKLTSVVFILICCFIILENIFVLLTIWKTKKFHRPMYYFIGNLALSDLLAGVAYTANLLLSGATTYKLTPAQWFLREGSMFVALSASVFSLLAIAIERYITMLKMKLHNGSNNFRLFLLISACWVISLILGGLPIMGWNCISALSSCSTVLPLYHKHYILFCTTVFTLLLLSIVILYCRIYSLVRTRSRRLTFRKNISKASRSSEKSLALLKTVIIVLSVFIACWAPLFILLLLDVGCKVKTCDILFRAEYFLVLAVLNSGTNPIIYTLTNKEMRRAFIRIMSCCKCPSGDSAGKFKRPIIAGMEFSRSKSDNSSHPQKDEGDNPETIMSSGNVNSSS
Sequence of hS1P1/CHO cells (P21453 whole entry): as above
Sequence of S1P1 (membranes prepared from S1P1/CHO cells) (P21453 whole entry): as above
Sequence of S1P3 (membranes prepared from EDG3-Gal5-bla HEK293T cells) (Q99500 whole entry): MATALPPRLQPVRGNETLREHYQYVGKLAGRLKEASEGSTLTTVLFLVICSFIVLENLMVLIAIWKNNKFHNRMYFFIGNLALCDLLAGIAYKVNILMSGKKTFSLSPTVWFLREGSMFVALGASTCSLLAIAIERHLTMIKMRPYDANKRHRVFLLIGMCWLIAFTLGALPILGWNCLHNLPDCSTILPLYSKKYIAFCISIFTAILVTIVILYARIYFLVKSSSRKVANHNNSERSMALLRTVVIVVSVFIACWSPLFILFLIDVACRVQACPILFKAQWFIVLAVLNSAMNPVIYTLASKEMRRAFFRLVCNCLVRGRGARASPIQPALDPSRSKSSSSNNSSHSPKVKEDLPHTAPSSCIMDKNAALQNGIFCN

EC50 [1] | IC50 [2] | EC50 [3] | EC50 [4] | Structure (SMILES)
< 10 nM | < 10 nM | 10 to 100 nM | > 625 nM | C/C=C\CCCC[C@H]1CCc2cc([C@H]3CC[C@](N)(COP(=O)(O)O)C3)ccc2C1 [compound 660]
< 10 nM | 10 to 100 nM | < 10 nM | > 625 nM | N[C@]1(COP(=O)(O)O)CC[C@H](c2ccc3c(c2)CC[C@@H](/C=C/C2CCOCC2)C3)C1 [compound 642]
– | 1000 to 10000 nM | 100 to 1000 nM | > 625 nM | N[C@@]1(COP(=O)(O)O)CCC(c2ccc3c(c2)CN(CCCc2ccccc2)C3=O)C1 (stereo partly drawn) [compound 613]
< 10 nM | < 10 nM | < 10 nM | > 625 nM | CCCC/C=C\CO[C@H]1CCc2cc([C@H]3CC[C@](N)(COP(=O)(O)O)C3)ccc2C1 [compound 440]
10 to 100 nM | < 10 nM | < 10 nM | > 625 nM | N[C@]1(COP(=O)(O)O)CC[C@H](c2ccc3c(c2)CC[C@H](COc2ccccc2)C3)C1 [compound 459]
< 10 nM | < 10 nM | 10 to 100 nM | > 625 nM | COc1ccc(OC[C@@H]2CCc3cc([C@H]4CC[C@](N)(COP(=O)(O)O)C4)ccc3C2)cc1OC [compound 491]
< 10 nM | < 10 nM | < 10 nM | > 625 nM | N[C@]1(COP(=O)(O)O)CC[C@H](c2ccc3c(c2)CC[C@@H](CCC2CCOCC2)C3)C1 [compound 558]
100 to 1000 nM | 100 to 1000 nM | 100 to 1000 nM | > 625 nM | N[C@]1(COP(=O)(O)O)CC[C@H](c2ccc3c(c2)CC[C@H](C[S+]([O-])c2ccccc2)C3)C1 (stereo partly drawn) [Example 667, ((1R,3S)-1-amino-3-((6S)-6-((phenylsulfinyl)methyl)-5,6,7,8-tetrahydronaphthalen-2-yl)cyclopentyl)methyl dihydrogen phosphate]
10 to 100 nM | < 10 nM | 10 to 100 nM | > 625 nM | N[C@]1(COP(=O)(O)O)CC[C@H](c2ccc3c(c2)CC[C@@H](COc2ccc(F)cc2)C3)C1 [compound 449]
– | < 10 nM | 10 to 100 nM | > 625 nM | N[C@]1(COP(=O)(O)O)CC[C@H](c2ccc3c(c2)CC[C@@H](COCc2ccsc2)C3)C1 [compound 473]
100 to 1000 nM | 100 to 1000 nM | < 10 nM | > 625 nM | N[C@]1(COP(=O)(O)O)CC[C@H](c2ccc3c(c2)CC[C@H](CS(=O)(=O)c2ccccc2)C3)C1 [compound 618]
< 10 nM | < 10 nM | 10 to 100 nM | > 625 nM | CCCCO/N=C(\C)[C@@H]1CCc2cc([C@H]3CC[C@](N)(COP(=O)(O)O)C3)ccc2C1 [compound 665]
< 10 nM | 1000 to 10000 nM | < 10 nM | > 625 nM | CC(C)=CCCC[C@@H]1CCc2cc([C@H]3CC[C@](N)(COP(=O)(O)O)C3)ccc2C1 [compound 556]
10 to 100 nM | 10 to 100 nM | 10 to 100 nM | > 625 nM | N[C@]1(COP(=O)(O)O)CC[C@H](c2ccc3c(c2)CC[C@@H](CCc2ccccc2)C3)C1 [compound 573]
10 to 100 nM | < 10 nM | < 10 nM | > 625 nM | CCCCCSC[C@@H]1CCc2cc([C@H]3CC[C@](N)(COP(=O)(O)O)C3)ccc2C1 [compound 513]
10 to 100 nM | < 10 nM | < 10 nM | – | CCCSC[C@H]1CCc2cc([C@H]3CC[C@](N)(COP(=O)(O)O)C3)ccc2C1 [compound 502]

EC50 [1] | IC50 [2] | EC50 [3] | EC50 [4] | Structure (SMILES)
10 to 100 nM | 10 to 100 nM | < 10 nM | > 625 nM | N[C@]1(COP(=O)(O)O)CC[C@H](c2ccc3c(c2)CC[C@@H](CSc2ccncc2)C3)C1 [compound 517]
10 to 100 nM | 100 to 1000 nM | 100 to 1000 nM | > 625 nM | Cc1cccc(/C=C/[C@@H]2CCc3cc([C@H]4CC[C@](N)(COP(=O)(O)O)C4)ccc3C2)c1 [compound 644]
< 10 nM | 10 to 100 nM | 10 to 100 nM | > 625 nM | CC(C)c1ccccc1SC[C@@H]1CCc2cc([C@H]3CC[C@](N)(COP(=O)(O)O)C3)ccc2C1 [compound 530]
< 10 nM | < 10 nM | 10 to 100 nM | > 50 nM | N[C@]1(COP(=O)(O)O)CC[C@H](c2ccc3c(c2)CC[C@H](CSCCc2ccccc2)C3)C1 [compound 521]
10 to 100 nM | < 10 nM | < 10 nM | > 100 nM | N[C@@]1(COP(=O)(O)O)CC[C@@H](c2ccc3c(c2)CC[C@H](OCCOCc2cccs2)C3)C1 (single isomer, unassigned) [compound 589]
100 to 1000 nM | – | 10 to 100 nM | > 625 nM | CCCC/C=C/C1=Cc2ccc([C@H]3CC[C@](N)(COP(=O)(O)O)C3)cc2CC1 [compound 647]
10 to 100 nM | < 10 nM | < 10 nM | – | Cc1cc(COC[C@@H]2CCc3cc([C@H]4CC[C@](N)(COP(=O)(O)O)C4)ccc3C2)sc1C [compound 488]
– | < 10 nM | 100 to 1000 nM | > 625 nM | CCCCC1CCCC2(CCc3cc([C@H]4CC[C@](N)(COP(=O)(O)O)C4)ccc3C2)O1 (stereo partly drawn) [compound 630]
< 10 nM | – | < 10 nM | > 625 nM | CCCCN(C)C(=O)OC1CCc2cc([C@H]3CC[C@](N)(COP(=O)(O)O)C3)ccc2C1 (stereo partly drawn) [compound 628]
< 10 nM | – | < 10 nM | > 625 nM | CC(C)CN(C)C(=O)c1cccc(OC[C@@H]2CCc3cc([C@H]4CC[C@](N)(COP(=O)(O)O)C4)ccc3C2)c1 [compound 500]
– | 100 to 1000 nM | 10 to 100 nM | > 625 nM | Cn1cc(COC[C@@H]2CCc3cc([C@H]4CC[C@](N)(COP(=O)(O)O)C4)ccc3C2)cn1 [compound 471]
100 to 1000 nM | – | 10 to 100 nM | > 625 nM | CCCCNC(=O)OC1CCc2cc([C@H]3CC[C@@](N)(COP(=O)(O)O)C3)ccc2C1 (stereo partly drawn) [compound 625]
– | 10 to 100 nM | 10 to 100 nM | > 625 nM | N[C@]1(COP(=O)(O)O)CC[C@H](c2ccc3c(c2)CCC2(CCCCO2)C3)C1 (stereo partly drawn) [compound 634]
– | 100 to 1000 nM | 10 to 100 nM | > 625 nM | N[C@]1(COP(=O)(O)O)CC[C@H](c2ccc3c(c2)CC[C@H](c2ccncc2)C3)C1 [compound 574]
100 to 1000 nM | 10 to 100 nM | 10 to 100 nM | – | CCCCC=C[C@H]1CCc2cc([C@H]3CC[C@](N)(COP(=O)(O)O)C3)ccc2C1 [compound 649]

Reference: US9522888B2, “Substituted bicyclic compounds” (BRISTOL-MYERS SQUIBB COMPANY, priority 2014, dated 2016)
